Assay results as given in patent publication US20230074252A1, “DOSAGES AND METHODS FOR TREATING PULMONARY ARTERIAL HYPERTENSION WITH RODATRISTAT” (Altavant Sciences GmbH, priority 2020, published 2023).
Values joined by “and” are separate entries in the source; they are usually repeats but may differ in a detail not shown here. Equal entries are not always repeated.

Assays:
[1] = Stability in heat deactivated rat hepatocytes; format: in vitro ADME; conditions: 2 h incubation
Description: (§1) The metabolic stability of RVT-1201 was measured in vitro in hepatocytes, liver microsomes, lung microsomes, intestinal S9, lung S9, liver S9 and whole blood. The major metabolite detected in incubations with human hepatocytes was KAR5417 (KRS-02). RVT-1201 was rapidly metabolized to form KAR5417, with <5% remaining after a 2 h incubation. In heat deactivated rat hepatocytes, <5% RVT-1201 remained after 2 h incubation in the same study. Therefore, RVT-1201 metabolism (and KAR5417 formation) are not dependent on oxidative or conjugative enzymatic processes. Formation of KAR5417 from RVT-1201 is a de-esterification process, which implicates an esterase or esterases as the major mechanism. The enzyme(s) responsible for RVT-1201 metabolism to form KAR5417 has not been identified but are considered to be carboxylesterase(s). In addition, RVT-1201 metabolism and KAR5417 formation were investigated in rat and human whole blood(XT184028).

[2] = Metabolic stability in human hepatocytes; format: in vitro ADME; conditions: 2 h incubation
Description: as §1

[3] = Stability in human whole blood; format: in vitro ADME
Description: (§2) However, in human whole blood incubations, no loss of RVT-1201 was observed. […] Therefore, metabolism of RVT-1201 was assigned to a cytosolic carboxylesterase (CES1) within the PBPK model. Although the enzyme responsible for RVT-1201 elimination and KAR5417 formation has not been identified, CES1 was selected to represent the enzymatic metabolism of RVT-1201 for this fit-for-purpose PBPK model.

[4] = Biopharmaceutics Classification System class; format: physicochemical
Text: RVT-1201 is a Biopharmaceutics Classification System (BCS) Class II or IV molecule with in vitro permeability consistent with oral bioavailability, which has been evaluated in a Phase 1 single ascending dose (SAD)/multiple ascending dose (MAD) study using a simple immediate release (IR) drug-in-capsule formulation (Clinical Study KAR5585-101). The active pharmaceutical ingredient used in this clinical study was polymorph Form 1. An optimized/enhanced oral formulation was developed with a goal to improve patient acceptance, increase the oral bioavailability relative to the IR capsule formulation to facilitate a dose reduction, reduce inter-subject variability and to optimize a formulation process suitable for larger scale manufacture. An oral IR tablet formulation and 2 spray-dried dispersion suspensions using polymorph Form 3 were investigated in a second clinical study (Clinical Study RVT-1201-1001). The purpose of this study was to assess the performance of selected formulations following oral administration to healthy subjects.

[5] = Stability in rat whole blood; format: in vitro ADME; conditions: 2 μM, 15 min
Description: as §1

[6] = Intrinsic clearance in liver S9 fractions; format: in vitro ADME; conditions: human, liver S9 fraction
Description: as §1, §2

[7] = Pro-drug to active ratio in portal versus peripheral blood; format: in vivo; conditions: rat
Text: (§3) Calculation of Cmax, u, portal uses plasma Cmax, fraction of an oral dose absorbed (Fa) and measured unbound fraction in blood. For rodatristat, experimentally derived values were used for Fa determined in a rat 14C study (20%) and in vitro binding to human plasma (99.1%) and blood:plasma distribution (RB, 0.72). Walsky et al proposed a threshold where the ratio of Cmax, u, portal/Ki of <0.1 is associated with low risk. […] In the rat, the RE:R is ˜3-fold higher in portal blood compared to the periphery.

CYP2C8 = target: T1, CYP2C8 (Homo sapiens, UniProt P10632); test: Unbound hepatic portal vein Cmax versus Ki analysis (Walsky et al); parameters: from tissue; host or cells: pooled human liver microsomes (n=200 donors)
T1 sequence (P10632 1-490): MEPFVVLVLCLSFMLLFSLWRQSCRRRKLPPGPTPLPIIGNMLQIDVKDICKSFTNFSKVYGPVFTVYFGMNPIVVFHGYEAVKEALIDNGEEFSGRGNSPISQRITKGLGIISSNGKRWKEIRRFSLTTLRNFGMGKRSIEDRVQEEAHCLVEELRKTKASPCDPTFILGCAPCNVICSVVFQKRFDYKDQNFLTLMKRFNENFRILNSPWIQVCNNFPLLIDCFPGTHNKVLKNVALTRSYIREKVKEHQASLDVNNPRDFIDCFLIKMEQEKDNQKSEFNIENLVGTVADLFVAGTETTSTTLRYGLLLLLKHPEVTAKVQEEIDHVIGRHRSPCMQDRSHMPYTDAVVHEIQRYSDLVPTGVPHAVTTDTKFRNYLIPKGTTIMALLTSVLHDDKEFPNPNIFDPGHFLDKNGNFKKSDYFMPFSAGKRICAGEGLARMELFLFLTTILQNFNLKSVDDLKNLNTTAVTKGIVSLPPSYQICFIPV
Text: Walsky, et al^i evaluated criteria to assess the potential for approved drugs to elicit clinically-meaningful drug interactions via inhibition of 2C8. Following their evaluation of 209 compounds they opined that unbound hepatic portal vein concentration (Cmax, u, portal) compared to the in vitro Ki provides additional insight beyond peripheral Cmax (used for FDA criteria) as it reflects the unbound drug concentration entering the liver.
as §3

[8] = Blood:plasma distribution; format: in vitro ADME; conditions: whole blood; read-out: Blood:plasma distribution (RB)
Text: as §3

[9] = Rat 14C study, fraction of oral dose absorbed; format: in vivo
Text: as §3

[10] = Metabolic stability in liver preparations across species; format: in vitro ADME
Text: (§4) The metabolism of rodatristat ethyl is predominantly by esterase mediated hydrolysis of the ester pro-drug moiety to rodatristat in liver tissue preparations from human, rat, dog, and cynomolgus monkey, and intestinal and lung tissues from rat and human. Hydrolysis of rodatristat ethyl was also observed in rat blood, and to a much lesser extent in dog and human blood.

[11] = Passive permeability in Caco 2 and MDCK cell studies; format: in vitro ADME
Text: Consequently, the elimination of rodatristat into bile may be impacted by co-administration with agents that are BCRP inhibitors.

Elimination route in rat = format: in vivo
Text: as §4

Row | SMILES | Remaining after incubation in heat deactivated rat hepatocytes [1] | Remaining after incubation with human hepatocytes [2] | Loss in human whole blood incubations [3] | Biopharmaceutics Classification System (BCS) Class [4] | Loss in rat blood [5] | microsomal CLint [6] | RE:R ratio higher in portal blood compared to the periphery [7] | Cmax, u, portal/Ki (CYP2C8) | blood plasma ratio [8] | Fraction of an oral dose absorbed (Fa) [9] | Metabolic stability in liver preparations [10] | Passive permeability [11] | Elimination route (Elimination route in rat)
1 | CCOC(=O)[C@@H]1CC2(CCN(c3cc(O[C@H](c4ccc(Cl)cc4-c4ccccc4)C(F)(F)F)nc(N)n3)CC2)CN1 [Rodatristat ethyl, (S)-ethyl 8-(2-amino-6-((R)-1-(5-chloro-[1,1′-biphenyl]-2-yl)-2,2,2-trifluoroethoxy)pyrimidin-4-yl)-2,8-diazaspiro[4.5]decane-3-carboxylate] | < 5% | < 5% | no loss | II or IV | Complete loss | 20 µL/min/mg | ~3 fold |  |  |  |  |  | 
2 | Nc1nc(O[C@H](c2ccc(Cl)cc2-c2ccccc2)C(F)(F)F)cc(N2CCC3(CC2)CN[C@H](C(=O)O)C3)n1 [Rodatristat, (S)-8-(2-amino-6-((R)-1-(5-chloro-[1,1′-biphenyl]-2-yl)-2,2,2-trifluoroeth-oxy)pyrimidin-4-yl)-2,8-diazaspiro[4.5]decane-3-carboxylic acid] |  |  |  |  |  |  |  | 0.128 and < 0.128 | 0.72 | 20% | metabolically stable | very low passive permeability | largely eliminated unchanged in bile
